{"source": "patent US20050176778A1", "about": "“Isoprenyl derivatives and their use in the title treatment and prevention of osteoporosis and cardiovascular calcification” (Vitak BV, priority 2001, published 2005)", "key": {"[1]": {"tested_on": "vascular calcification (aortae and carotid arteries)", "test": "Experiment 4: vascular calcification (Von Kossa staining) in rats treated with warfarin, vitamin K-1 and increasing doses of MK-4 (KW model)", "type": "in vivo, male Lewis rats", "text": "In the present invention the “Vitamin K1 plus warfarin” model was used to test effects of isoprenyl derivatives on vascular calcification. This model is also referred to as the “KW model for calcification” or “KW model”. Because of the parallels between vascular calcification and calcium metabolism in bone, the model is regarded to be valid for describing potential effects on bone. Whereas in this model the bone deformations will not become visible before 9 months of treatment, calcification of the large arteries is usually apparent within 4 weeks of treatment. This model therefore provides an excellent in vivo model to test the compounds according to the invention for their tissue distribution, toxicity and effectivity. […] It was shown that calcification was not inhibited by vitamin K-1 in doses going up from 40 to 600 mg/kg of body weight per day. The highest dose was 15,000 times the amount required for normal blood coagulation in untreated animals, and 15 times the amount required for normal blood coagulation in warfarin-treated animals. At these high intakes all tissues contain excessive amounts of vitamin K-1, which apparently are incapable of supporting the synthesis of inhibitors of calcium precipitation such as the Gla-protein MGP. […]"}, "[2]": {"tested_on": "postmenopausal bone loss", "details": "cited from earlier work"}, "[3]": {"tested_on": "prothrombin", "test": "Experiment 1: dietary requirement of vitamin K-1 in untreated rats, prothrombin concentration (one-stage coagulation assay)", "type": "in vivo, male Lewis rats", "details": "for Mean prothrombin concentration: four weeks", "method": "In experiment 1 the dietary requirement of vitamin K-1 was measured in untreated male Lewis rats, 6 weeks of age, on the basis of blood coagulation tests after a treatment period of 4 weeks. At an intake of 40 microgram vitamin K-1 per kg body weight per day, the synthesis of coagulation factors had reached its (maximal) plateau level.\nMale rats of the Lewis strain were used throughout our experiments, six animals per group. Thirty six animals entered the experiment at the age of 6 weeks and received a vitamin K deficient diet (Hope Farms, Woerden, The Netherlands) for one week to deplete them from endogenous vitamin K. During the experiment they were housed in coprophagy-preventing cages. After this period citrated blood was taken from the tail vein, and the prothrombin concentrations (one-stage coagulation assay) were checked to be below the normal reference value. At that time they received vitamin K-deficient food to which controlled amounts of vitamin K-1 were added in the following doses: 0.1, 0.2, 0.4, 0.6, 0.8, and 1.0 mg/kg of food. The daily food intake was recorded, and the body weight of the animals was measured regularly. After four weeks of treatment at the indicated doses again blood was taken and prothrombin concentrations were measured. Mean prothrombin concentrations in the groups were: 23%, 48%, 82%, 98%, 102%, and 99% of pooled normal rat reference plasma. […] This amount corresponds with an intake of 40 micrograms of vitamin K-1 per kg body weight per day."}, "[4]": {"tested_on": "prothrombin", "test": "Experiment 2: dietary requirement of vitamin K-1 in warfarin-treated rats, plasma prothrombin level", "type": "in vivo, male Lewis rats", "method": "In experiment 2 the dietary requirement of vitamin K-1 in warfarin-treated (300 mg Vitamin K-1 per kg body weight per day) male Lewis rats, 6 weeks of age, was measured on the basis of blood coagulation tests after a treatment period of 4 weeks. At a level of 40 mg vitamin K-1 per kg body weight per day a normal prothrombin synthesis was maintained.\nThirty six male Lewis rats (6 weeks of age) were treated with an excess of warfarin (300 mg vitamin K-1 per kg body weight per day) to block all dithiol reductase present in the tissues. They were subdivided into groups of 6 animals each and received vitamin K-1 in the following doses: 20, 40, 70, 100, 300, and 600 mg/kg body weight per day. […] It was concluded that […] of vitamin K-1 per kg body weight per day effectively protects the animals against warfarin-induced bleeding."}, "[5]": {"tested_on": "vascular calcification (aortic arch and carotid arteries)", "test": "Experiment 3: vascular calcification (Von Kossa staining) in rats treated with warfarin and increasing doses of vitamin K-1", "type": "in vivo, male Lewis rats", "text": "In the present invention the “Vitamin K1 plus warfarin” model was used to test effects of isoprenyl derivatives on vascular calcification. This model is also referred to as the “KW model for calcification” or “KW model”. Because of the parallels between vascular calcification and calcium metabolism in bone, the model is regarded to be valid for describing potential effects on bone.\nThe same animals described in experiment 2 were killed, and the aortic arch and carotid arteries were removed and stained for calcium deposits using the Von Kossa staining and histochemical inspection."}}, "note": "“Also recorded” adds a separate entry of the source."}
{"smiles": "CC(C)=CCC/C(C)=C/CC/C(C)=C/CC/C(C)=C/CC1=C(C)C(=O)c2ccccc2C1=O", "note": "[MK-4, 2-methyl 3-geranylgeranyl naphthoquinone]", "values": [{"measurement": "Inhibition of vascular calcification", "setting": "[1]; KW model, addition of 10 mg/kg body weight per day of MK-4", "result": "effectively inhibited all vascular calcification"}, {"measurement": "Vascular calcification (Von Kossa staining)", "setting": "[1]; warfarin 300 mg/kg/d plus vitamin K-1 70 mg/kg/d plus MK-4 10, 20 and 50 mg per kg body weight per day, 6 weeks", "result": "no calcification"}, {"measurement": "Action on bone", "setting": "[2]; high doses of MK-4 (45 mg/day)", "result": "comparable with that of bisphosphonates"}, {"measurement": "Effect on postmenopausal bone loss", "setting": "[2]; high doses", "result": "almost completely inhibit postmenopausal bone loss"}]}
{"smiles": "CC1=C(C/C=C(\\C)CCC[C@H](C)CCC[C@H](C)CCCC(C)C)C(=O)c2ccccc2C1=O", "note": "[vitamin K-1]", "values": [{"measurement": "Diet content sufficient to maintain normal prothrombin synthesis", "setting": "[3]; untreated rats, content in food", "result": "0.6 mg of vitamin K-1 per kg"}, {"measurement": "Mean prothrombin concentration", "setting": "[3]; vitamin K-1 0.1 mg/kg of food, after vitamin K deficient diet", "result": "23 % of pooled normal rat reference plasma"}, {"measurement": "Mean prothrombin concentration", "setting": "[3]; vitamin K-1 0.2 mg/kg of food", "result": "48 % of pooled normal rat reference plasma"}, {"measurement": "Mean prothrombin concentration", "setting": "[3]; vitamin K-1 0.4 mg/kg of food", "result": "82 % of pooled normal rat reference plasma"}, {"measurement": "Mean prothrombin concentration", "setting": "[3]; vitamin K-1 0.6 mg/kg of food", "result": "98 % of pooled normal rat reference plasma"}, {"measurement": "Mean prothrombin concentration", "setting": "[3]; vitamin K-1 0.8 mg/kg of food", "result": "102 % of pooled normal rat reference plasma"}, {"measurement": "Mean prothrombin concentration", "setting": "[3]; vitamin K-1 1.0 mg/kg of food", "result": "99 % of pooled normal rat reference plasma"}, {"measurement": "Dose that effectively protects the animals against warfarin-induced bleeding", "setting": "[4]", "result": "70 mg of vitamin K-1 per kg body weight per day"}, {"measurement": "Level at which a normal prothrombin synthesis was maintained", "setting": "[4]; 4 weeks", "result": "40 mg vitamin K-1 per kg body weight per day"}, {"measurement": "Circulating prothrombin concentration", "setting": "[4]; 20 and 40 mg of vitamin K-1 per day", "result": "60 % of normal"}, {"measurement": "Circulating prothrombin concentration", "setting": "[4]; all higher intakes (70, 100, 300, 600 mg/kg body weight per day)", "result": "comparable to normal reference values"}, {"measurement": "Inhibition of calcification", "setting": "[5]; KW model, vitamin K-1 doses going up from 40 to 600 mg/kg of body weight per day", "result": "not inhibited"}, {"measurement": "Vascular calcification (Von Kossa staining)", "setting": "[5]; warfarin 300 mg/kg/d plus vitamin K-1 20, 40, 70, 100, 300 and 600 mg/kg body weight per day, 4 weeks", "result": "substantial calcification; also recorded: Calcification of the media (notably the elastic lamelae) was found in all animals"}]}
